Data published in patent US10370366B2 (Flatley Discovery Lab, LLC, priority 2013, dated 2019).

Molecular target: T1, human F508del CFTR (Homo sapiens, UniProt P13569, DEL508-508)
T1 construct: expressed in transfected cells; host or cells: Fisher Rat Thyroid (FRT) cells
Test: CFTR-YFP High Throughput Assay
Format: cell-based
Settings: FRT cells expressing human F508del CFTR and YFP; for Emax: EMax normalized to the positive control, read-out: % Efficacy
Procedure: Assays for Detecting and Measuring the Effect of Compounds on F508del-CFTR Channels CFTR-YFP High Throughput Assay-CFTR Corrector Protocol:
This protocol is designed to selectively screen small molecule compounds for F508del CFTR corrector activities in the HTS YFP (yellow fluorescent protein) flux assay. In this protocol, the cells are incubated with testing compounds for 24 hours, washed with PBS, stimulated with forskolin and a standard potentiator, and fluorescence in each plate well is measured kinetically read on a 384-well HTS plate reader, such as the Hamamatsu FDSS-6000.
YFP fluorescence intensity values are acquired at high speed before and after iodide buffer is injected to the assay cells. Iodide enters the cells via active CFTR channels in the plasma membrane, and quenches the YFP fluorescence. The rate of fluorescence quenching is proportionate to the total CFTR activity in the cell membrane. F508del CFTR correctors increase the number of CFTR molecules in the testing cell plasma membrane, and thereby accelerate YFP quenching.
This method was initially developed for bench top plate readers (Galietta et al., 2001), and was adapted to the HTS format (Sui et al. Assay Drug Dev. Technol. 2010).
Fisher Rat Thyroid (FRT) cells stably expressing both human F508del CFTR and a halide-sensitive yellow fluorescent protein (YFP-H148Q/I152L 25,22) (Galietta et al. Am. J. Physiol Cell Physiol 281(5), C1734, 2001) were cultured on plastic surface in Coon's modified Ham's F12 medium supplemented with FBS 10%, L-glutamine 2 mM, penicillin 100 U/ml, and streptomycin 100 µg/ml. G418 (0.75-1.0 mg/ml) and zeocin (3.2 ug/ml) were used for selection of FRT cells expressing F508del CFTR and YFP. For primary screening, FRT cells were plated into 384-well black wall, transparent bottom microtiter plates (Costar; Corning Inc.) at a cell density of 20,000-40,000 per well. Test compound was applied to the cells at varying concentrations ranging from 2 nM-40 μM in either a 2-fold or 3-fold dilution series. Cells were incubated in a cell culture incubator at 37° C. with 5% CO2 for 24-26 h. Assay plates were washed with DPBS media (Thermo, cat# SH30028.02) to remove unbound cells and compound. Stimulation media (25 μL) containing 20 μM Forskolin & 30 μM P3 [6-(Ethyl-phenyl-sulfonyl)-4-oxo-1,4-dihydro-quinoline-3-carboxylic acid 2-methoxy-benzylamide] in Hams F-12 coon's modified media was added to the plate wells and incubated at room temperature for 60-120 min. […] (10 mM HEPES, 1 mM MgCl2, 3 mM KCl, 1 mM CaCl2, 150 mM NaI) was then added and fluorescence quench curves (Excitation 500 nm/Emission 540 nm; exposure 136 ms) were immediately recorded on an FDSS-6000 plate reader (Hamamatsu). Quench rates were derived from least squares fitting of the data as described by Sui et al (2010).
CFTR-YFP High Throughput Assay-CFTR Potentiator Protocol:
This protocol is designed to selectively screen small molecule compounds for F508del CFTR potentiator activities in the HTS YFP flux assay. Such compounds act acutely to stimulate CFTR already expressed on the membrane surface. In this protocol, the cells are incubated at 27° C. for 24 hours to homogeneously boost F508del CFTR expression in the cell membrane (low temperature correction), washed with PBS, treated with test compound, and CFTR activity is stimulated with forskolin for 1-2 hr. Measurement of ion flux is initiated by addition of iodide-containing buffer, and YFP quenching is kinetically recorded using a 384-well HTS plate reader, such as the Hamamatsu FDSS-6000.
YFP fluorescence intensity values are acquired at high speed over a 1 min time course before and after iodide buffer is injected to the assay cells. Iodide enters the cells via active CFTR channels in the plasma membrane, and quenches the YFP fluorescence. The rate of fluorescence quenching is proportionate to total CFTR activity in the cell membrane. […]

T1 sequence (P13569 with tags, fused parts or gaps DEL508-508): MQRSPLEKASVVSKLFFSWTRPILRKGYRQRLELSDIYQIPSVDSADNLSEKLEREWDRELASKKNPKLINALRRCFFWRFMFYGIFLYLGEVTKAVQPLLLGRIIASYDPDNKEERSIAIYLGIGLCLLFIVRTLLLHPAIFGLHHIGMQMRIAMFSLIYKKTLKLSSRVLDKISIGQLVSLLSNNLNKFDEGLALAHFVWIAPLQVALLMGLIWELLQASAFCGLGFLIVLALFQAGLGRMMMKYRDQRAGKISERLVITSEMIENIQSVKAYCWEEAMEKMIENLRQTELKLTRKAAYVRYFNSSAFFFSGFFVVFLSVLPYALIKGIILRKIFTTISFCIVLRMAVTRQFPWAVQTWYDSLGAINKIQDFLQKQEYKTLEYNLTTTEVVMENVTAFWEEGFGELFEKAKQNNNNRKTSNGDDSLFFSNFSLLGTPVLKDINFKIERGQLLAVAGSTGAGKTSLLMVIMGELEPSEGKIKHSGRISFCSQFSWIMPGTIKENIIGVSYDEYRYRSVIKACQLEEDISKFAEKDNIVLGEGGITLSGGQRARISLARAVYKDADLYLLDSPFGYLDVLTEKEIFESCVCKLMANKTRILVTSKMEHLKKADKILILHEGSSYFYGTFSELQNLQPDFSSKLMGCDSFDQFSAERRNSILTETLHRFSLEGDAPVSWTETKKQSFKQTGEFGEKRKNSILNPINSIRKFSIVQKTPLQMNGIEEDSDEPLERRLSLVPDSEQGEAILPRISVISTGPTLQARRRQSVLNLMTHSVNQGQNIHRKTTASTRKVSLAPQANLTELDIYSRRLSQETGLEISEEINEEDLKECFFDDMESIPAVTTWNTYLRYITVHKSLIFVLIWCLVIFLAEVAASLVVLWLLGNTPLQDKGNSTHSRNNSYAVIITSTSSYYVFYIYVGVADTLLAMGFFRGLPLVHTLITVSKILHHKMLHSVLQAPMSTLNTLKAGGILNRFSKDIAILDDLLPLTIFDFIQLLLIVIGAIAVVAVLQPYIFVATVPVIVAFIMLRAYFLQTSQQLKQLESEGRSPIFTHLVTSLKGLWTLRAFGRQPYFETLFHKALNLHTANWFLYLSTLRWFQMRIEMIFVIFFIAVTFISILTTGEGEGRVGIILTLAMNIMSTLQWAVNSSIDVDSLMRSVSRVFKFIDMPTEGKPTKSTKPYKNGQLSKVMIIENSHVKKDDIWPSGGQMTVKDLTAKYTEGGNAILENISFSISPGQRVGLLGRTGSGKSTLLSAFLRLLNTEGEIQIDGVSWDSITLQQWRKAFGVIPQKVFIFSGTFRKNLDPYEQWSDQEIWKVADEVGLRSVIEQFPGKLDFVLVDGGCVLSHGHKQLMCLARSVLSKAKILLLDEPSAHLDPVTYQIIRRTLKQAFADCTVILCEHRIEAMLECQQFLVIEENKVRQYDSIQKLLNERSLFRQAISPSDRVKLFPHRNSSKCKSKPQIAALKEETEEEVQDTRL

Row | Emax | EC50 | SMILES
1 | 10 to 30% |  | CCc1ccc(N(CC)C(=O)Cn2nc(-c3ccccc3)c3ccccc3c2=O)cc1 [Example 1, N-ethyl-N-(4-ethylphenyl)-2-(1-oxo-4-phenylphthalazin-2(1H)-yl)acetamide]
2 | 10 to 30% |  | CCc1ccc(N(CC)C(=O)Cn2nc(-c3ccc(O)cc3)c3ccccc3c2=O)cc1 [Example 2, N-ethyl-N-(4-ethylphenyl)-2-(4-(4-hydroxyphenyl)-1-oxophthalazin-2(1H)-yl)acetamide]
3 | 30 to 80% |  | CCc1ccc(N(CC)C(=O)Cn2nc(-c3cccnc3)c3ccccc3c2=O)cc1 [Example 3, N-ethyl-N-(4-ethylphenyl)-2-(1-oxo-4-(pyridin-3-yl)phthalazin-2(1H)-yl)acetamide]
4 | 30 to 80% |  | CCc1ccc(N(CC)C(=O)Cn2nc(-c3ccncc3)c3ccccc3c2=O)cc1 [Example 4, N-ethyl-N-(4-ethylphenyl)-2-(1-oxo-4-(pyridin-4-yl)phthalazin-2(1H)-yl)acetamide]
5 | 30 to 80% |  | CCc1ccc(N(CC)C(=O)Cn2nc(-c3cccc4ncccc34)c3ccccc3c2=O)cc1 [Example 5, N-ethyl-N-(4-ethylphenyl)-2-(1-oxo-4-(quinolin-5-yl)phthalazin-2(1H)-yl)acetamide]
6 | 30 to 80% |  | CCc1ccc(N(CC)C(=O)Cn2nc(-c3cccc4cnccc34)c3ccccc3c2=O)cc1 [Example 6, N-ethyl-N-(4-ethylphenyl)-2-(4-(isoquinolin-5-yl)-1-oxophthalazin-2(1H)-yl)acetamide]
7 | 30 to 80% | > 20 µM | CCc1ccc(N(CC)C(=O)Cn2nc(-c3cncnc3)c3ccccc3c2=O)cc1 [Example 7, N-ethyl-N-(4-ethylphenyl)-2-(1-oxo-4-(pyrimidin-5-yl)phthalazin-2(1H)-yl)acetamide]
8 | 30 to 80% | < 10 µM | CCc1ccc(N(CC)C(=O)Cn2nc(-c3cccc(N)c3)c3ccccc3c2=O)cc1 [Example 8, 2-(4-(3-aminophenyl)-1-oxophthalazin-2(1H)-yl)-N-ethyl-N-(4-ethylphenyl)acetamide]
9 | 10 to 30% | < 10 µM | CCc1ccc(N(CC)C(=O)Cn2nc(-c3cccc(O)c3)c3ccccc3c2=O)cc1 [Example 9, N-ethyl-N-(4-ethylphenyl)-2-(4-(3-hydroxyphenyl)-1-oxophthalazin-2(1H)-yl)acetamide]
10 | 10 to 30% | > 20 µM | CCc1ccc(N(CC)C(=O)Cn2nc(-c3cccc4c3OCO4)c3ccccc3c2=O)cc1 [Example 10, 2-(4-(benzo[d][1,3]dioxol-4-yl)-1-oxophthalazin-2(1H)-yl)-N-ethyl-N-(4-ethylphenyl)acetamide]
11 | 30 to 80% | 10 to 20 µM | CCc1ccc(N(CC)C(=O)Cn2nc(-c3cccc(C(N)=O)c3)c3ccccc3c2=O)cc1 [Example 11, 3-(3-(2-(ethyl(4-ethylphenyl)amino)-2-oxoethyl)-4-oxo-3,4-dihydrophthalazin-1-yl)benzamide]
12 | 30 to 80% | > 20 µM | CCc1ccc(N(CC)C(=O)Cn2nc(-c3ccc(C(N)=O)cc3)c3ccccc3c2=O)cc1 [Example 12, 4-(3-(2-(ethyl(4-ethylphenyl)amino)-2-oxoethyl)-4-oxo-3,4-dihydrophthalazin-1-yl)benzamide]
13 | 30 to 80% | 10 to 20 µM | CCc1ccc(N(CC)C(=O)Cn2nc(-c3ccc(S(N)(=O)=O)cc3)c3ccccc3c2=O)cc1 [Example 13, N-ethyl-N-(4-ethylphenyl)-2-(1-oxo-4-(4-sulfamoylphenyl)phthalazin-2(1H)-yl)acetamide]
14 | 30 to 80% | > 20 µM | CCc1ccc(N(CC)C(=O)Cn2nc(-c3ccc(C(=O)O)cc3)c3ccccc3c2=O)cc1 [Example 14, 4-(3-(2-(ethyl(4-ethylphenyl)amino)-2-oxoethyl)-4-oxo-3,4-dihydrophthalazin-1-yl)benzoic acid]
15 | 10 to 30% | > 20 µM | CCc1ccc(N(CC)C(=O)Cn2nc(-c3ccc(C(=O)OC)cc3)c3ccccc3c2=O)cc1 [Example 15, methyl 4-(3-(2-(ethyl(4-ethylphenyl)amino)-2-oxoethyl)-4-oxo-3,4-dihydrophthalazin-1-yl)benzoate]
16 | 30 to 80% | < 10 µM | CCc1ccc(N(CC)C(=O)Cn2nc(-c3ccc(S(C)(=O)=O)cc3)c3ccccc3c2=O)cc1 [Example 16, N-ethyl-N-(4-ethylphenyl)-2-(4-(4-(methylsulfanoyl)phenyl)-1-oxophthalazin-2(1H)-yl)acetamide]
17 | 30 to 80% | < 10 µM | CCc1ccc(N(CC)C(=O)Cn2nc(-c3cccc(C#N)c3)c3ccccc3c2=O)cc1 [Example 17, 2-(4-(3-cyanophenyl)-1-oxophthalazin-2(1H)-yl)-N-ethyl-N-(4-ethylphenyl)acetamide]
18 | > 80% | 10 to 20 µM | CCN(C(=O)Cn1nc(-c2ccc(S(N)(=O)=O)cc2)c2ccccc2c1=O)c1ccc2c(c1)OC(F)(F)O2 [Example 18, N-(2,2-difluorobenzo[d][1, 3]dioxol-5-yl)-N-ethyl-2-(1-oxo-4-(4-sulfamoylphenyl)phthalazin-2(1H)-yl)acetamide]
19 | > 80% | 10 to 20 µM | CCN(C(=O)Cn1nc(-c2ccc(C(N)=O)cc2)c2ccccc2c1=O)c1ccc2c(c1)OC(F)(F)O2 [Example 19, 4-(3-(2-((2,2-difluorobenzo[d][1,3]dioxol-5-yl)(ethyl)amino)-2-oxoethyl)-4-oxo-3,4-dihydrophthalazin-1-yl)benzamide]
20 | 30 to 80% | > 20 µM | CCN(C(=O)Cn1nc(-c2ccc(C(=O)O)cc2)c2ccccc2c1=O)c1ccc2c(c1)OC(F)(F)O2 [Example 20, 4-(3-(2-((2,2-difluorobenzo[d][1,3]dioxol-5-yl)(ethyl)amino)-2-oxoethyl)-4-oxo-3,4-dihydrophthalazin-1-yl)benzoic acid]
21 | > 80% | < 10 µM | CCN(C(=O)Cn1nc(-c2cccc(C#N)c2)c2ccccc2c1=O)c1ccc2c(c1)OC(F)(F)O2 [Example 21, 2-(4-(3-cyanophenyl)-1-oxophthalazin-2(1H)-yl)-N-(2,2-difluorobenzo[d][1,3]dioxol-5-yl)-N-ethylacetamide]
22 | > 80% | < 10 µM | CCN(C(=O)Cn1nc(-c2cccc(F)c2)c2ccccc2c1=O)c1ccc2c(c1)OC(F)(F)O2 [Example 23, N-(2,2-difluorobenzo[d][1, 3]dioxol-5-yl)-N-ethyl-2-(4-(3-fluorophenyl)-1-oxophthalazin-2(1H)-yl)acetamide]
23 | 30 to 80% | < 10 µM | CCN(C(=O)Cn1nc(-c2cccnc2)c2ccccc2c1=O)c1ccc2c(c1)OC(F)(F)O2 [Example 24, N-(2,2-difluorobenzo[d][1, 3]dioxol-5-yl)-N-ethyl-2-(1-oxo-4-(pyridin-3-yl)phthalazin-2(1H)-yl)acetamide]
24 | 30 to 80% | 10 to 20 µM | CCc1ccc(N(CC)C(=O)Cn2nc(Cc3cccnc3)c3ccccc3c2=O)cc1 [Example 25, N-ethyl-N-(4-ethylphenyl)-2-(1-oxo-4-(pyridin-3-ylmethyl)phthalazin-2(1H)-yl)acetamide]
25 | 30 to 80% |  | CCN(C(=O)Cn1nc(Cc2cccnc2)c2ccccc2c1=O)c1ccc2c(c1)OC(F)(F)O2 [Example 26, N-(2,2-difluorobenzo[d][1,3]dioxol-5-yl)-N-ethyl-2-(1-oxo-4-(pyridin-3-ylmethyl)phthalazin-2(1H)-yl)acetamide]
26 | 30 to 80% |  | COc1ccc(N(C)C(=O)Cn2nc(Cc3cccnc3)c3ccccc3c2=O)cc1 [Example 27, N-(4-methoxyphenyl)-N-methyl-2-(1-oxo-4-(pyridin-3-ylmethyl)phthalazin-2(1H)-yl)acetamide]
